Reference: publication PMC12093266, “Synergistic action of two radical SAM enzymes in the biosynthesis of thuricin CD, a two-component sactibiotic” (Chemical Science, 2025)
Numbered stars: 1 amine (or outer) side, 2 acyl side, 3 side chain; on linkers, the order of the positions; unused ones are H or OH. Bridge positions count the residues as written; N and C are the ends. Square brackets hold non-standard residues; d marks the D form. Peptide text beside a SMILES is read from it. X3 = O=C([C@@](Cc1ccc(O)cc1)(N[*:1])[*:3])[*:2]; X5 = C[C@@H](O)[C@@](N[*:1])(C(=O)[*:2])[*:3]; X1 = C[C@@H](O)[C@](N[*:1])(C(=O)[*:2])[*:3]; X4 = O=C([C@](CO)(N[*:1])[*:3])[*:2]; X2 = C[C@](N[*:1])(C(=O)[*:2])[*:3]

How the values were obtained:
Bacillus cereus [1] = experiment: Disk diffusion susceptibility test; format: cell-based; conditions: 5 μL of 100 μM peptide (each) on filter paper, BHI agar, 30 °C, 15-20 h
Method: In vitro susceptibility test
Briefly, the liquid Brain Heart Infusion (BHI) agar (3.2 % BHI, 1.5% agar) was cooled to 42 °C and seeded with 100 μL of dense overnight culture (approximately 10 8-109 CFU mL -1) of Bacillus cereus. […] Kanamycin and 30% isopropanol were used
Spot 4: 5 μL 0.1 mg/ml kanamycin; Spot 5: 5 μL 30% isopropanol.

Bacillus cereus [2] = format: cell-based; conditions: B. cereus in LB, 96-well plate, serial dilution, 30 °C, 16 h, OD600; lowest concentration with <10% OD increase over kanamycin well; HPLC-purified peptides in 30% isopropanol; '>' = no inhibition observed at that concentration
Method: To test whether the thuricin CD variant obtained in E. coli was bioactive, we performed disk diffusion susceptibility tests with trnα′ and trnβ′ using Bacillus cereus as a test strain. […]
the elution fraction (1: 200 (v/v) ratio), and the resulting solution was then kept overnight for digestion at 4 °C. The resulting solution was heat-inactivated at 95 °C for 10 min followed by freezing at -80 °C for 1 h, and was subjected to centrifugation (13000 × g for 15 min at 4 °C) to remove any precipitates. The resulting solutions containing TrnA or TrnB were directly used in downstream analysis or frozen at -80 °C […]
Production of trnα’ and trnβ’
The modified TrnA and TrnB solutions were mixed with GluC (2 mg/ml stock solution) in a 50:1 (v/v) ratio and the proteolytic reaction was proceeded at room temperature for 2hr. The reaction mixture was subsequently quenched by methanol, and was lyophilized after centrifugation to remove any protein precipitate. The resulting sample was then dissolved in 30% isopropanol and injected onto a reverse phase Phenomenex Aeris PEPTIDE XB-C18 column (250 x 10 mm, 5 μm). […]
as a positive and negative controls, respectively. […] The OD600 was read on a SP-Max 2300A plate reader. […]

SMILES | inhibition in disk diffusion test (Bacillus cereus [1]) | minimal inhibition concentration (MIC) (Bacillus cereus [2]) [µM]
CC[C@H](C)[C@H](N)C(=O)NCC(=O)NCC(=O)N[C@@H](CC(N)=O)C(=O)N[C@@H](C)C(=O)N[C@@H](C)C(=O)N[C@H]1CS[C@](C(=O)N[C@@H](CC(C)C)C(=O)NCC(=O)O)([C@@H](C)O)NC(=O)[C@H](Cc2ccccc2)NC(=O)[C@H](C)NC(=O)[C@]2([C@@H](C)O)NC(=O)CNC(=O)[C@H](C(C)C)NC(=O)[C@H](CC(C)C)NC(=O)[C@]3(CO)NC(=O)CNC(=O)[C@H]([C@@H](C)CC)NC(=O)CNC(=O)[C@H](CCC(=O)O)NC(=O)[C@H](CO)NC(=O)[C@H]([C@@H](C)CC)NC(=O)[C@H](C(C)C)NC(=O)[C@H](CS3)NC(=O)[C@H](CO)NC(=O)CNC(=O)[C@H]([C@@H](C)CC)NC(=O)[C@H](CS2)NC(=O)CNC(=O)[C@H]([C@@H](C)CC)NC(=O)[C@H](C(C)C)NC1=O [trnα′] (H-IGGNAACVIGCIGSCVISEGIG[X4]LVG[X1]AF[X5]LG-OH; thioether 7-30, 11-27, 15-23; N-terminus and C-terminus assumed) | no activity | > 50
CC(C)C[C@H](NC(=O)[C@H](Cc1ccccc1)NC(=O)[C@@]1(Cc2ccc(O)cc2)NC(=O)[C@H](CO)NC(=O)[C@H](C)NC(=O)[C@]2(C)NC(=O)[C@H](C)NC(=O)[C@H](Cc3ccccc3)NC(=O)[C@H](CCC(=O)O)NC(=O)[C@]3([C@@H](C)O)NC(=O)CNC(=O)[C@H](C(C)C)NC(=O)CNC(=O)CNC(=O)[C@H](CO)NC(=O)[C@H](C)NC(=O)[C@H](CC(C)C)NC(=O)[C@H](CS3)NC(=O)[C@H](C(C)C)NC(=O)[C@H]([C@@H](C)O)NC(=O)CNC(=O)[C@H](CS2)NC(=O)[C@H](C)NC(=O)CNC(=O)[C@H](C(C)C)NC(=O)[C@@H](NC(=O)[C@H](C)NC(=O)[C@@H](NC(=O)[C@H](Cc2c[nH]c3ccccc23)NC(=O)CNC(=O)CNC(=O)[C@@H](N)C(C)C)C(C)C)CS1)C(=O)O [trnβ′] (H-VGGWVACVGACGTVCLASGGVG[X1]EFA[X2]AS[X3]FL-OH; thioether 7-30, 11-27, 15-23; N-terminus and C-terminus assumed) | no activity | > 50
